Measurements reported in US4132778A, “Antibiotic A-32887” (Eli Lilly and Company, priority 1977, dated 1979).

Tests used:
[1] = test system: Bacteriodes fragilis ssp fragilis 1877; test: Standard agar-dilution assay, anaerobic bacteria, Table IX; format: cell-based; conditions: 24-hour incubation
E. tenella AND E. maxima = test: Anticoccidial feeding test in chicks, E. tenella and E. maxima (Table XI); format: in vivo; parameters: Average Lesion Score, Total Intestinal / Average Lesion Score, Cecal: scale not given here; Mortality: unit not given here; conditions: for Mortality: due to coccidiosis
Procedure: ^1 70,000 oocysts/bird of each of E. tenella and E. maxima
^2 Infected 48 hours postmedication; terminated seven days
^3 Four replicates; five birds/replicate

Eubacterium aerofaciens = test: Standard agar-dilution assay, anaerobic bacteria, Table IX; format: cell-based; conditions: 24-hour incubation
[2] = test system: Bacteriodes fragilis ssp fragilis 1936B; test: as above; format: cell-based; conditions: 24-hour incubation
[3] = test system: Staphylococcus aureus 3074 (Penicillin G-resistant); test: Conventional disc-diffusion method, Table VII; format: cell-based
Source text: (§1) The activity of A-32887 (Na-K salt) against illustrative bacteria, as measured by the conventional disc-diffusion method, is summarized in Table VI.
*Penicillin G-resistant

Fusobacterium symbiosum = test: Standard agar-dilution assay, anaerobic bacteria, Table IX; format: cell-based; conditions: 24-hour incubation
guinea pig left atria = test: Cardiac contractility in guinea pig left atria; conditions: 10^-5 molar
Source text: The A-32887 compounds are potential cardiotonic agents. In tests using guinea pig left atria, A-32887 (Na-K salt) increased cardiac contractility. Response to this test is expressed as a percentage of the maximal force that could be elicited by a challenge dose of norepinephrine. A-32887 (Na-K salt), at a 10^-5 molar concentration, increased cardiac contractility by 28.0 ± 7.1 percent.

[4] = test system: ruminal propionate concentration; test: Ruminal VFA in fistulated feed-lot cattle (Table XV); format: in vivo; conditions: 30 g/ton, 24 days
Source text: The procedure used in testing cattle in this manner is also described in Raun's U.S. Pat. No. 3,839,557 (see Example 9). Table XV summarizes the results of such a test with A-32887 (Na-K salt) wherein five feed-lot cattle weighing approximately 425 kg. were in each group and the mean percent increases in ruminal propionate concentration were averaged over four analyses in a 24-day treatment period.

Mexican bean beetle = test: Insecticidal activity; format: in vivo; conditions: 1000 ppm
Source text: (§2) In another aspect, the A-32887 compounds are useful as insecticides. For example, A-32887 (Na-K salt) is active against insects such as Mexican bean beetle, Southern armyworm and housefly when applied at a rate of 1000 ppm.

Southern armyworm = test: Insecticidal activity; format: in vivo; conditions: 1000 ppm
Source text: as §2

housefly = test: Insecticidal activity; format: in vivo; conditions: 1000 ppm
Source text: as §2

[5] = test system: Pasteurella multocida (bovine); test: Standard agar-dilution assay (MIC), Table VI; format: cell-based; conditions: Na-K salt
Source text: Antibiotic A-32887 inhibits the growth of pathogenic bacteria, especially gram-positive bacteria. Table VI summarizes the minimal inhibitory concentrations (MIC), as measured by standard agar-dilution assays, at which A-32887 (Na-K salt) inhibits certain bacteria.

Bacteriodes corrodens = test: Standard agar-dilution assay, anaerobic bacteria, Table IX; format: cell-based; conditions: 24-hour incubation
[6] = test system: Staphylococcus aureus 3130 (Methicillin-resistant); test: Conventional disc-diffusion method, Table VII; format: cell-based
Source text: as §1
**Methicillin-resistant

acute swine dysentery = test: Swine dysentery test in infected pigs (Table XVII); format: in vivo; conditions: 100 g/ton in feed
Procedure: In another aspect the A-32887 compounds are useful in the prevention and control of swine dysentery. A preferred method of administration to swine is by incorporation of an appropriate amount of an A-32887 compound into the feed ration. […] In this test, groups of four pigs were challenged orally with 5.0 ml of a colon-content/tissue suspension prepared from pigs suffering from acute swine dysentery. Treated pigs were challenged 24 hours after initiating feed treatment. The test was carried out over a period of 26 days, observing pigs daily, and weighing them weekly and on day 26.
*Fecal material for each group was rated daily with 0= normal, 1= slight
blood or mucus, 2= moderate blood or mucus, 3= marked blood or mucus.
Index is the total score per treatment for 25 days.

[7] = test system: E. tenella, E. maxima and E. acervulina; test: Anticoccidial feeding test in chicks, E. tenella, E. maxima and E. acervulina (Table XIII); conditions: for Percent Mortality: due to coccidiosis; for Percent Weight Gain: per survivor
[8] = test system: powdery mildew disease in bean plants; test: Plant disease test, spray; format: in vivo; conditions: 400 ppm as a spray
Source text: The A-32887 compounds are also useful in the treatment of certain plant diseases.

[9] = test system: Peptostreptococcus intermedius; test: Standard agar-dilution assay, anaerobic bacteria, Table IX; format: cell-based; conditions: 24-hour incubation
[10] = test system: Peptostreptococcus anaerobius; test: as above; format: cell-based; conditions: 24-hour incubation
coccidia = test: Feeding experiments in chicks challenged with coccidia; format: in vivo, Eimeria species; chicks; conditions: levels as low as 40 ppm in feed of young chickens
Propionibacterium acnes = test: Standard agar-dilution assay, anaerobic bacteria, Table IX; format: cell-based; conditions: 24-hour incubation

CO[C@H]1CC[C@H](OC2[C@@H](C)[C@@](C)(O)O[C@H]([C@H]3CC[C@H]([C@@H]4CC[C@H]([C@@]5(C)O[C@]6(O[C@H](C[C@@H]7O[C@](O)([C@@H](O)C(=O)O)[C@@H](C)[C@H](OC)[C@@]7(C)OC)C[C@@H](OC)[C@H]6C)[C@H](C)[C@H]5OC)O4)O3)[C@H]2C)O[C@@H]1C.[K+].[Na+] (some centres unmarked) [A-32887 (Na-K salt)]
MIC [1]: 2 µg/mL
Average Lesion Score, Cecal (E. tenella AND E. maxima; 40 ppm in feed): 1.6
Average Lesion Score, Total Intestinal (E. tenella AND E. maxima; 40 ppm in feed): 4.9
Mortality (E. tenella AND E. maxima; 40 ppm in feed): 0
Average Lesion Score, Cecal (E. tenella AND E. maxima; 60 ppm in feed): 0.6
Average Lesion Score, Total Intestinal (E. tenella AND E. maxima; 60 ppm in feed): 5.9
Mortality (E. tenella AND E. maxima; 60 ppm in feed): 0
Average Lesion Score, Cecal (E. tenella AND E. maxima; 80 ppm in feed): 0.3
Average Lesion Score, Total Intestinal (E. tenella AND E. maxima; 80 ppm in feed): 3.0
Mortality (E. tenella AND E. maxima; 80 ppm in feed): 0
Average Lesion Score, Cecal (E. tenella AND E. maxima; 100 ppm in feed): 0
Average Lesion Score, Total Intestinal (E. tenella AND E. maxima; 100 ppm in feed): 1.6
Mortality (E. tenella AND E. maxima; 100 ppm in feed): 0
MIC (Eubacterium aerofaciens): ≤ 0.5 µg/mL
MIC [2]: 2 µg/mL
Zone of Inhibition ([3]; 30 mcg/disc): 12.7 mm
Zone of Inhibition ([3]; 300 mcg/disc): 16.0 mm
MIC (Fusobacterium symbiosum): 32 µg/mL
increase of cardiac contractility (percentage of maximal force elicited by norepinephrine) (guinea pig left atria): 28.0 ± 7.1%
Molar % Butyrate [4]: 9.6 Molar %
Total VFA [4]: 79.6 mM/l.
insecticidal activity (Mexican bean beetle): active
insecticidal activity (Southern armyworm): active
insecticidal activity (housefly): active
MIC [5]: 50.00 µg/mL
MIC (Bacteriodes corrodens): 2 µg/mL
Zone of Inhibition ([6]; 30 mcg/disc): 15.0 mm
Zone of Inhibition ([6]; 300 mcg/disc): 15.2 mm
No. Died per No. in Group (acute swine dysentery): 0/4
No. with Colon Lesions/No. in Group (acute swine dysentery): 2/4
Diarrhea Index (acute swine dysentery; total score per treatment for 25 days): 22
Average Lesion Score, Cecal ([7]; 25 ppm): 3.9
Average Lesion Score, Intestinal ([7]; 25 ppm): 1.1
Percent Mortality ([7]; 25 ppm): 35%
Percent Weight Gain ([7]; 25 ppm): 57%
Average Lesion Score, Cecal ([7]; 50 ppm): 3.8
Average Lesion Score, Intestinal ([7]; 50 ppm): 1.8
Percent Mortality ([7]; 50 ppm): 0%
Percent Weight Gain ([7]; 50 ppm): 79%
Average Lesion Score, Cecal ([7]; 75 ppm): 2.0
Average Lesion Score, Intestinal ([7]; 75 ppm): 0.9
Percent Mortality ([7]; 75 ppm): 0%
Percent Weight Gain ([7]; 75 ppm): 90%
Average Lesion Score, Cecal ([7]; 100 ppm): 0.1
Average Lesion Score, Intestinal ([7]; 100 ppm): 0
Percent Mortality ([7]; 100 ppm): 0%
Feed/Gain ([7]; 100 ppm, pens without deaths only): 1.50
Percent Weight Gain ([7]; 100 ppm): 93%
inhibition of powdery mildew disease [8]: inhibits powdery mildew disease
MIC [9]: 1.0 µg/mL
MIC [10]: ≤ 0.5 µg/mL
mortality and number of lesions in challenged chicks (coccidia): decreases mortality and the number of lesions
MIC (Propionibacterium acnes): ≤ 0.5 µg/mL
